Measurements published in patent US12617762B2, “Carboxy derivatives with antiinflamatory properties” (Sitryx Therapeutics Limited, priority 2019, dated 2026).
Structures can show the parent of a compound that is named as a salt. Where two headings read alike, the source gives them in different places.

Assays:
[1] = system: IL-1β cytokine output from THP-1s; experiment: THP-1 AlphaLISA IL-1β cytokine inhibition assay; type: cell-based; settings: for IC50: LPS then nigericin; for IL-1β lowering, result in words: THP-1 IL-1β assay
Protocol: Measuring Inhibitory Effects on IL-1β Cytokine Output from THP-1s
The cytokine inhibition profiles of compounds of formula (I) were determined in a differentiated THP-1 cell assay. All assays were performed in RPMI-1640 growth medium (Gibco), supplemented with 10% fetal bovine serum (FBS; Gibco), 1% penicillin-streptomycin and 1% sodium pyruvate unless specified otherwise. The IL-1β cytokine inhibition assay was run in a background of differentiated THP-1 cells as described below. All reagents described were from Sigma-Aldrich unless specified otherwise. Compounds were prepared as 10 mM DMSO stocks.
THP-1 cells were expanded as a suspension up to 80% confluence in appropriate growth medium. Cells were harvested, suspended, and treated with an appropriate concentration of phorbol 12-myristate 13-acetate (PMA) over a 72 hr period (37° C./5% CO2).
Following 72 hrs of THP-1 cell incubation, cellular medium was removed and replaced with fresh growth media containing 1% of FBS. Working concentrations of compounds were prepared separately in 10% FBS treated growth medium and pre-incubated with the cells for 30 minutes (37° C./5% CO2). Following the 30 minute compound pre-incubation, THP-1s were treated with an appropriate concentration of LPS and the cells were subsequently incubated for a 24 hr period (37° C./5% CO2). An appropriate final concentration of Nigericin was then dispensed into the THP-1 plates and incubated for 1 hour (37° C./5% CO2) before THP-1 supernatants were harvested and collected in separate polypropylene 96-well holding plates.
Reagents from an IL-1β and IL-6 commercial kit (Perkin Elmer) were prepared and run according to the manufacturer's instructions. Subsequently, fluorescence signal detection in a microplate reader was measured (EnVision® Multilabel Reader, Perkin Elmer).
Percentage inhibition was calculated per cytokine by normalising the sample data to the high and low controls used within each plate (+/− LPS respectively).

[2] = system: NRF2 (nuclear factor erythroid 2-related factor 2); experiment: NRF2 +/-GSH activation assay (DiscoverX PathHunter NRF2 translocation kit, U2OS cells); type: cell-based; settings: for NRF2 activation +GSH Emax / NRF2 activation −GSH Emax: normalised to DMF high control
Protocol: Measuring Compound Activation Effects on the Anti-Inflammatory Transcription Factor NRF2 in DiscoverX PathHunter NRF2 Translocation Kit
Potency and efficacy of compounds of formula (I) against the target of interest to activate NRF2 (nuclear factor erythroid 2-related factor 2) were determined using the PathHunter NRF2 translocation kit (DiscoverX). The NRF2 translocation assay was run using an engineered recombinant cell line, utilising enzyme fragment complementation to determine activation of the Keap1-NRF2 protein complex and subsequent translocation of NRF2 into the nucleus. Enzyme activity was quantified using a chemiluminescent substrate consumed following the formation of a functional enzyme upon PK-tagged NRF2 translocation into the nucleus.
The assay was run under both +/−GSH (glutathione) conditions to determine the sensitivity of the compounds' NRF2-activating abilities to attenuation by GSH.
Additionally, a defined concentration of DMF was used as the ‘High’ control to normalise test compound activation responses to.
U2OS PathHunter eXpress cells were thawed from frozen prior to plating. Following plating, U2OS cells were incubated for 24 hrs (37° C./5% CO2) in commercial kit provided cell medium.
Following 24 hrs of U2OS incubation, cells were directly treated with an appropriate final concentration of compound, for −GSH conditions or, for +GSH conditions, an intermediate plate containing 6× working concentrations of compound stocks was prepared in a 6 mM working concentration of GSH solution (solubilised in sterile PBS). Following a 30 minute compound-GSH pre-incubation (37° C./5% CO2) for +GSH treatment, plated U2OS cells were incubated with an appropriate final concentration of compound and GSH.
Following compound (+/−GSH) treatment, the U2OS plates were incubated for a further 6 hours (37° C./5% CO2) before detection reagent from the PathHunter NRF2 commercial kit was prepared and added to test plates according to the manufacturer's instructions. Subsequently, the luminescence signal detection was measured in a microplate reader (PHERAstar®, BMG Labtech).
Percentage activation was calculated by normalising the sample data to the high and low controls used within each plate (+/−DMF).

[3] = +GSH, 30 minute compound-GSH pre-incubation, read-out: NRF2 activation +GSH EC50
[4] = −GSH, U2OS PathHunter cells, 6 hours compound treatment, read-out: NRF2 activation −GSH EC50
[5] = Homo sapiens, THP-1, differentiated THP-1 cells

Compound | IC50 ([1]; differentiated THP-1 cells) [µM] | EC50 [2, 3] [µM] | NRF2 activation +GSH Emax ([2]; +GSH) [%] | EC50 [2, 4] [µM] | NRF2 activation −GSH Emax ([2]; −GSH) [%] | IC50 [1, 5] [µM] | IL-1β lowering, result in words [1]
C=C(Cc1nc(-c2ccc(OC(C)CC)cc2)no1)C(=O)O (stereo in doubt) [Example 145, (S)-2-((3-(4-(sec-butoxy)phenyl)-1,2,4-oxadiazol-5-yl)methyl)acrylic acid] | 35.6 | 31.4 | 135 | 28.4 | 170 | – | –
C=C(Cc1ncn(CCCCCCCC)n1)C(=O)O [Example 13, 2-((1-octyl-1H-1,2,4-triazol-3-yl)methyl)acrylic acid] | – | 48.6 | 51 | 43.1 | 54 | > 100 | not effective
C=C(Cc1nc(C2(c3ccccc3Cl)CC2)no1)C(=O)O [Example 24, 2-((3-(1-(2-chlorophenyl)cyclopropyl)-1,2,4-oxadiazol-5-yl)methyl)acrylic acid] | – | > 100 | 17 | 42.4 | 57 | > 100 | not effective
C=C(Cc1nc(Cc2cccc(CCCC)c2)no1)C(=O)O [Example 29, 2-((3-(3-butylbenzyl)-1,2,4-oxadiazol-5-yl)methyl)acrylic acid] | – | 11.2 | 183 | 7.6 | 179 | 22.8 | –
C=C(Cc1nc(CCCc2ccc(Cl)cc2)no1)C(=O)O [Example 33, 2-((3-(3-(4-chlorophenyl)propyl)-1,2,4-oxadiazol-5-yl)methyl)acrylic acid] | – | 23.3 | 160 | 18.3 | 150 | 83.5 | –
C=C(Cc1nc(CCCCCCC(F)(F)CF)no1)C(=O)O [Example 47, 2-((3-(7,7,8-trifluorooctyl)-1,2,4-oxadiazol-5-yl)methyl)acrylic acid] | – | 47.1 | 86 | 41.4 | 131 | > 100 | not effective
C=C(Cc1nc(C2CCCCC2)no1)C(=O)O [Example 64, 2-((3-cyclohexyl-1,2,4-oxadiazol-5-yl)methyl)acrylic acid] | – | > 100 | 17 | > 100 | 86 | > 100 | not effective
C=C(Cc1nc(C2CCCCCC2)no1)C(=O)O [Example 65, 2-((3-cycloheptyl-1,2,4-oxadiazol-5-yl)methyl)acrylic acid] | – | > 100 | 17 | > 100 | 50 | > 100 | not effective
C=C(Cc1nc(C23CC4CC(CC(C4)C2)C3)no1)C(=O)O [Example 66, 2-((3-(adamantan-1-yl)-1,2,4-oxadiazol-5-yl)methyl)acrylic acid] | – | > 100 | 14 | > 100 | 23 | > 100 | not effective
C=C(Cc1noc(Cc2ccc(CCCC)cc2)n1)C(=O)O [Example 95, 2-((5-(4-butylbenzyl)-1,2,4-oxadiazol-3-yl)methyl)acrylic acid] | – | 3.9 | 183 | 2.8 | 217 | > 31.6 | –
C=C(Cc1noc(-c2ccc(OCCCC)cc2)n1)C(=O)O [Example 96, 2-((5-(4-butoxyphenyl)-1,2,4-oxadiazol-3-yl)methyl)acrylic acid] | – | 12.4 | 115 | 11.7 | 170 | > 31.6 | –
C=C(Cc1noc(C2(c3ccc(OC(F)(F)F)cc3)CC2)n1)C(=O)O [Example 99, 2-((5-(1-(4-(trifluoromethoxy)phenyl)cyclopropyl)-1,2,4-oxadiazol-3-yl)methyl)acrylic acid] | – | – | – | – | – | 52.3 | –
C=C(Cc1nc(C2(c3ccc(OC4CC4)cc3)CC2)no1)C(=O)O [Example 114] | – | – | – | – | – | 55.2 | –
C=C(Cc1nc(-c2ccc(Br)cc2)no1)C(=O)O [Example 118, 2-((3-(4-bromophenyl)-1,2,4-oxadiazol-5-yl)methyl)acrylic acid] | – | – | – | – | – | 59.6 | –
C=C(Cc1nc(-c2ccc(I)cc2)no1)C(=O)O [Example 119, 2-((3-(4-iodophenyl)-1,2,4-oxadiazol-5-yl)methyl)acrylic acid] | – | – | – | – | – | 59.6 | –
C=C(Cc1nc(-c2ccc(S(F)(F)(F)(F)F)cc2)no1)C(=O)O [Example 121, 2-((3-(4-(pentafluoro-λ^6-sulfaneyl)phenyl)-1,2,4-oxadiazol-5-yl)methyl)acrylic acid] | – | – | – | – | – | 61.8 | –
C=C(Cc1nc(C2(c3ccc(S(=O)(=O)C(F)(F)F)cc3)CC2)no1)C(=O)O [Example 122, 2-((3-(1-(4-((trifluoromethyl)sulfonyl)phenyl)cyclopropyl)-1,2,4-oxadiazol-5-yl)methyl)acrylic acid] | – | – | – | – | – | 75.5 | –
C=C(Cc1nc(CCCC)c(CCCC)o1)C(=O)O [Example 123, 2-((4,5-dibutyloxazol-2-yl)methyl)acrylic acid] | – | 62.4 | 42 | 6.6 | 111 | > 100 | –
C=C(Cc1nc(Oc2ccc(CCCC)cc2)no1)C(=O)O [Example 126, 2-((3-(4-butylphenoxy)-1,2,4-oxadiazol-5-yl)methyl)acrylic acid] | – | – | – | – | – | 32.1 | –
C=C(Cc1nc(-c2ccc(N3CCCC3)cc2)no1)C(=O)O [Example 132, 2-((3-(4-(pyrrolidin-1-yl)phenyl)-1,2,4-oxadiazol-5-yl)methyl)acrylic acid] | – | – | – | – | – | 29.9 | –
C=C(Cc1nc(Cc2ccc(C(F)(F)F)c(Cl)c2)no1)C(=O)O [Example 137, 2-((3-(3-chloro-4-(trifluoromethyl)benzyl)-1,2,4-oxadiazol-5-yl)methyl)acrylic acid] | – | – | – | – | – | 60.5 | –
C=C(Cc1nc(Cc2ccc(Br)c(Cl)c2)no1)C(=O)O [Example 139, 2-((3-(4-bromo-3-chlorobenzyl)-1,2,4-oxadiazol-5-yl)methyl)acrylic acid] | – | – | – | – | – | 41.1 | –
C=C(Cc1nc(C2CCc3c(Cl)cc(Cl)cc32)no1)C(=O)O (stereo not drawn) [Example 148, 2-((3-(4,6-dichloro-2,3-dihydro-1H-inden-1-yl)-1,2,4-oxadiazol-5-yl)methyl)acrylic acid] | – | – | – | – | – | 42.6 | –
C=C(Cc1nc(-c2ccc(OCCC)cc2)no1)C(=O)O [Example 149, 2-((3-(4-propoxyphenyl)-1,2,4-oxadiazol-5-yl)methyl)acrylic acid] | – | – | – | – | – | 50 | –
C=C(Cc1nc(C(F)(F)c2ccc(OC)c(Cl)c2)no1)C(=O)O [Example 150, 2-((3-((3-chloro-4-methoxyphenyl)difluoromethyl)-1,2,4-oxadiazol-5-yl)methyl)acrylic acid] | – | – | – | – | – | 52.7 | –
C=C(Cc1nc(C(F)c2ccc(Cl)cc2)no1)C(=O)O (stereo not drawn) [Example 152, 2-((3-((4-chlorophenyl)fluoromethyl)-1,2,4-oxadiazol-5-yl)methyl)acrylic acid] | – | – | – | – | – | 36.4 | –
COC(=O)/C=C/C(=O)OC [dimethyl fumarate, reference compound] | – | > 100 | 20 | 6.1 | 100 | – | –
